# According to US7109294B2, “Bacterial glycosyltransferase polypeptides involved in antibiotic resistance” (priority 2001, dated 2006):
# Entries after “also recorded” stand apart in the source; their conditions may differ.
# Experiments:
# Format in all cases: cell-based, Pseudomonas aeruginosa
# [1] = test system: 45E7 mutant colony biofilm
# [2] = test system: 30B1 mutant colony biofilm
# [3] = test system: 45E7 mutant flow cell biofilm
smiles,measurement,setting,value
"NC[C@H]1O[C@H](O[C@H]2[C@H](O)[C@@H](O[C@H]3O[C@H](CO)[C@@H](O)[C@H](N)[C@H]3O)[C@H](N)C[C@@H]2N)[C@H](N)C[C@@H]1O [Tb, tobramycin]",resistance of colony biofilm cells,[1],as resistant to the effects of Tb as the wild type
same,viable cells in colony biofilm,[1],below detection; also recorded: no viable cells were detected
same,drop in viable count in colony biofilm,[2],~10^9
same,viable cells in colony biofilm,[2],below detection; also recorded: no viable cells detected
same,live versus dead cells in Tb-treated biofilm (BacLight),[3],more dead cells than live ones
